According to PMC7335108, “Butyrate producing colonic Clostridiales metabolise human milk oligosaccharides and cross feed on mucin via conserved pathways” (Nature Communications, 2020):
Several values for one entry are separate records, joined by “and”; a condition that tells them apart may be missing. Identical values can stand only once.

How the values were obtained:
RhLNBBP [1] = biological target: T1, RhLNBBP (Roseburia hominis, UniProt G2T0U7); set-up: isothermal titration calorimetry, single-site binding model; conditions: binder; read-out: KD (μM) ITC
T1 construct: gene RHOM_04095; signal peptide removed, cleavable His6 tag, pETM11, expressed in E. coli
T1 sequence (G2T0U7 21-454): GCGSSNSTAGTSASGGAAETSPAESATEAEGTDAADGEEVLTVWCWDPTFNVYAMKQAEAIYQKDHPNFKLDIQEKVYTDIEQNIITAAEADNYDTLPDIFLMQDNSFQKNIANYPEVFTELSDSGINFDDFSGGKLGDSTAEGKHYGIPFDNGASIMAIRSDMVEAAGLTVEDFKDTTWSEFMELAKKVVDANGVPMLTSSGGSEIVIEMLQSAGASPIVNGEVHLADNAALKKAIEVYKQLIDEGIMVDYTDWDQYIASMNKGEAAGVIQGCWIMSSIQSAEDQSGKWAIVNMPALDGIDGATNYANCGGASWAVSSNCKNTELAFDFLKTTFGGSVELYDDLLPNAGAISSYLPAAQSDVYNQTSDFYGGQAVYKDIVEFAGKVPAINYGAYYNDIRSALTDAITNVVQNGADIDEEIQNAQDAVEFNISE
Description: Binding of LNT, LNB, GNB, LNnT, lactose and 2′FL to RhLNBBP was measured using a Microcal ITC200 calorimeter (GE Healthcare). Titrations were performed in duplicates at 25 °C with RhLNBBP (0.1 mM) in the sample cell and 1.5 mM ligand in 10 mM sodium phosphate buffer, pH 6.5 in the syringe. A first injection of 0.4 µL was followed by 19 injections of 2 µL ligand each, separated by 180 s. Heat of dilution was determined from buffer titrations and corrected data were analysed using MicroCal Origin software v7.0. To determine binding thermodynamics a non-linear single binding model was fitted to the normalized integrated binding isotherms.

RhLNBBP [2] = biological target: T2, RhLNBBP (Roseburia hominis, UniProt G2T0U7); assay: isothermal titration calorimetry; format: binding; conditions: 10 mM sodium phosphate, pH 6.5, 25 °C
T2 construct: gene RHOM_04095; signal peptide removed, cleavable His6 tag, pETM11, expressed in E. coli

RhGLnbp112 = biological target: T3, RhGLnbp112 (Roseburia hominis, UniProt G2T0V2); assay: phosphorolysis, HPAEC-PAD of Gal1P; specific activity only; format: biochemical; conditions: 50 mM sodium phosphate, 150 mM NaCl, 0.005% Triton X-100, pH 6.5, 37 °C, 2 mM substrate
T3 construct: gene RHOM_04120; cleavable His6 tag, pETM11, E. coli
T3 sequence (G2T0V2 entry or part of it): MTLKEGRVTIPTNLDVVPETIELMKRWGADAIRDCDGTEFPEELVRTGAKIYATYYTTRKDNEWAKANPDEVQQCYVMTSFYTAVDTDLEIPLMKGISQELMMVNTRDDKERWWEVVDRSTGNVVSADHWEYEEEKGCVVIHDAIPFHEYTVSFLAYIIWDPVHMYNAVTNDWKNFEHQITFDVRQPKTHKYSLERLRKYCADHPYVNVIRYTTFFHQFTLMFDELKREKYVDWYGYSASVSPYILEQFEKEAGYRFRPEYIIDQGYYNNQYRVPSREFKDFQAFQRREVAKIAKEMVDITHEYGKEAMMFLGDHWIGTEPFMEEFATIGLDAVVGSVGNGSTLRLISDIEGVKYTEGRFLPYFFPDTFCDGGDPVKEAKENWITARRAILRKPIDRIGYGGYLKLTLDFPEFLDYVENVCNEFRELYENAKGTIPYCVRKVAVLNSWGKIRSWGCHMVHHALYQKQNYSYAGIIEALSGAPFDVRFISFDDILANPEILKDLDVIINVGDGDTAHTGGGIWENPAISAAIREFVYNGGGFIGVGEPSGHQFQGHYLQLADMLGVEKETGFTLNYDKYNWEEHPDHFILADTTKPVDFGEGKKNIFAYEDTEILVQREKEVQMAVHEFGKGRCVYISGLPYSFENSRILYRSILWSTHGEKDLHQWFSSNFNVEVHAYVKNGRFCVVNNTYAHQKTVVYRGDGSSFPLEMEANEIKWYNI

RiLe^a/bBP [3] = biological target: T4, RiLe^a/bBP (Roseburia inulinivorans, UniProt A0ACG1Y794); set-up: surface plasmon resonance, steady state, one-site fit; conditions: binder; read-out: KD (µM) SPR
T4 construct: gene LK408_15410; signal peptide removed, cleavable His6 tag, pETM11, expressed in E. coli; amine-coupled to CM5 chip
T4 sequence (A0ACG1Y794 20-470): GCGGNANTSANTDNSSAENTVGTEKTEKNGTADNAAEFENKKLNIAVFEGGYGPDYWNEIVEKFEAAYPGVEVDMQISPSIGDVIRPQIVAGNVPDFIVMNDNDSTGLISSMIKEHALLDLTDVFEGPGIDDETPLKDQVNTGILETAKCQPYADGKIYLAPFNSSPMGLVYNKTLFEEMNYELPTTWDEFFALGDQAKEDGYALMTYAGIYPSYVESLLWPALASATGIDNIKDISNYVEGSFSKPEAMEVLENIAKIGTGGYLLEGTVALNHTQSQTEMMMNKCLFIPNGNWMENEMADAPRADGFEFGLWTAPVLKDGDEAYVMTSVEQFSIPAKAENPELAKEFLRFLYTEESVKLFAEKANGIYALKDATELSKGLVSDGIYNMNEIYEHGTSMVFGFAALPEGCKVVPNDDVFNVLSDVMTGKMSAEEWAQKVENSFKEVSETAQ
Text: Both SBPs recognized distinct HMOs and ligands from host-glycans (Fig. 4, Supplementary Tables 2 and 3, Supplementary Fig. 7). […] The loss of the fucosyl unit at the terminal reducing GlcNAc reduced the affinity of RiLe^a/bBP about 5-fold for blood group H antigen triose type I (H triose type I) relative to Le^b tetraose. The specificity of RiLe^a/bBP is highlighted by the lack of affinity for lacto-N-neotetroase (LNnT), blood group A antigen triose (A triose), lactose and 2′-fucosyllactose (2′-FL). […] An equimolar mixture of Le^b, Le^a and H-triose type I oligomers promoted the growth of R. inulinivorans to a similar final OD600 as glucose (Fig. 1b, c and Fig. 4a). The uptake profiles of these ligands reflected the preference of RiLe^a/bBP, consistent with uptake by the associated transporter (Fig. 4). This was also in accord with the utilization of larger fucosylated HMO structures observed during growth on purified HMOs from mother’s milk (Supplementary Fig. 2a–c).

RiGLnbp112 = biological target: T5, RiGLnbp112 (Roseburia inulinivorans, UniProt A0ACG1Y7L8); assay: phosphorolysis, HPAEC-PAD of Gal1P; specific activity only; format: biochemical; conditions: 50 mM sodium phosphate, 150 mM NaCl, 0.005% Triton X-100, pH 6.5, 37 °C, 2 mM substrate
T5 construct: gene gnpA; cleavable His6 tag, pETM11, E. coli
T5 sequence (A0ACG1Y7L8 entry or part of it): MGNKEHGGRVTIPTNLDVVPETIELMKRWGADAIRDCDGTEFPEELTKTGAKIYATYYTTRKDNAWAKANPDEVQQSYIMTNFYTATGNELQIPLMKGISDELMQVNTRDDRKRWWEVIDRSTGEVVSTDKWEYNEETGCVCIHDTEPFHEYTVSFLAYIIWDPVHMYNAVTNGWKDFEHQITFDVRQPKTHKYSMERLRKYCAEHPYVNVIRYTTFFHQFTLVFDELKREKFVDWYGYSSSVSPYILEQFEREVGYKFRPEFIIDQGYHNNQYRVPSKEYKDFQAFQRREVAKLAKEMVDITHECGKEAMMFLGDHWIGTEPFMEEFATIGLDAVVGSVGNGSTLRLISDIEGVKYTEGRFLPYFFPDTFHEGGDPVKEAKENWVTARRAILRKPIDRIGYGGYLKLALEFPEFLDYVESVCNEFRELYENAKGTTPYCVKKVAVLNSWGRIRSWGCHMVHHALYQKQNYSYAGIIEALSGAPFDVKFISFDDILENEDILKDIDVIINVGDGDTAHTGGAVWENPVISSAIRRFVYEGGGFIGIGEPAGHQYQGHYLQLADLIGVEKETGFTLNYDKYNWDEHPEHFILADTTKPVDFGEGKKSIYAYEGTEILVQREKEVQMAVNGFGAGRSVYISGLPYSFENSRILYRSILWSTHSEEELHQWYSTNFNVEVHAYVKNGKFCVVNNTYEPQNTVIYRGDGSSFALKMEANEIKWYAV

ErLnb136 = biological target: T6, ErLnb136 (Eubacterium ramulus, UniProt U2PDT9); assay: X-ray crystal structure; format: binding; conditions: SeMet-labelled protein, 1.4 Å; 25 mM LNB in cryoprotectant; active site
T6 construct: gene HMPREF0373_02965; single chain, domain I AA 7-224 and catalytic domain II AA 242-663; His6 tag, pETM11, E. coli; crystal SeMet-labelled
T6 sequence (U2PDT9 entry or part of it): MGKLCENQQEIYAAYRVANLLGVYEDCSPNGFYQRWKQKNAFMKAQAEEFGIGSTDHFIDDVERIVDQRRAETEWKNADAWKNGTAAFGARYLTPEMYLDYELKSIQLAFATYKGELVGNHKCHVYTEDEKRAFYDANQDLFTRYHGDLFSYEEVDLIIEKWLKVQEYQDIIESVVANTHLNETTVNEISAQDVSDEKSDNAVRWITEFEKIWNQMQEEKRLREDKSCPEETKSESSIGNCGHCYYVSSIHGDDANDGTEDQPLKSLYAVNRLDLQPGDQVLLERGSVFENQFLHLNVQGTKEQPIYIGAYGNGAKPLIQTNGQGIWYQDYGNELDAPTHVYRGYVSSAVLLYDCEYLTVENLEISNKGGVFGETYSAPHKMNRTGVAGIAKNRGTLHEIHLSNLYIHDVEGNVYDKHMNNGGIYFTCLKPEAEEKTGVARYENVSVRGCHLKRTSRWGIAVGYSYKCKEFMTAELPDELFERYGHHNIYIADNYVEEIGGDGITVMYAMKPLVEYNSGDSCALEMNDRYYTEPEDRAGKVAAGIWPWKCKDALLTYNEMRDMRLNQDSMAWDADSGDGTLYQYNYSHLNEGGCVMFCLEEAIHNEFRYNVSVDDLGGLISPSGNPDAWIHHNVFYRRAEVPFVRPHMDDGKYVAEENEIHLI

RiLe^a/bBP [4] = biological target: T7, RiLe^a/bBP (Roseburia inulinivorans, UniProt A0ACG1Y794); assay: surface plasmon resonance, steady state, one-site fit; format: binding; conditions: 20 mM sodium phosphate, 150 mM NaCl, 0.005% P20, pH 6.5, 25 °C; protein immobilised on CM5 chip
T7 construct: gene LK408_15410; signal peptide removed, cleavable His6 tag, pETM11, expressed in E. coli; amine-coupled to CM5 chip

RiFuc29 = biological target: T8, RiFuc29 (Roseburia inulinivorans, UniProt A0ACG1Y7F2); assay: product profile (TLC and/or MALDI-TOF MS); format: biochemical; conditions: 50 mM MES, 150 mM NaCl, 0.005% Triton X-100, pH 6.5, 37 °C, 16 h; alpha-(1->4)-L-fucosyl removed
T8 construct: gene LK408_15425; cleavable His6 tag, pETM11, E. coli; no signal peptide; the GH29 of the GH112/GH136 locus, not that of the GH98 locus
T8 sequence (A0ACG1Y7F2 entry or part of it): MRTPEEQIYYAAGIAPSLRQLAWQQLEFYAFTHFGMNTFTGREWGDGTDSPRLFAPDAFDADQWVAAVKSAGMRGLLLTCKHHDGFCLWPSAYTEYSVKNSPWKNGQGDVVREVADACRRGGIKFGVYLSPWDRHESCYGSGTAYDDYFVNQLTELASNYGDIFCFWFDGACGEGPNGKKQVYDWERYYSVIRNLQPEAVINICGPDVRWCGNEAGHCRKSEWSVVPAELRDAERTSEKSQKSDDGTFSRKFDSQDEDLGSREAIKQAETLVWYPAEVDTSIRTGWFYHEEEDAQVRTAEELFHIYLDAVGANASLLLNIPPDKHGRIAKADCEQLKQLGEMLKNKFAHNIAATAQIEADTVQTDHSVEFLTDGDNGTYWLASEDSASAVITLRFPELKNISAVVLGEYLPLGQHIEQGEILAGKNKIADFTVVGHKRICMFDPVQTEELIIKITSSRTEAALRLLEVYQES

[5] = biological target: T9, ErLnb136II, C-terminal catalytic beta-helix domain of the GH136 lacto-N-biosidase ErLnb136 from Eubacterium … (Eubacterium ramulus DSM 15684, UniProt U2PDT9 242-663, selenomethionine in the SeMet-labelled crystal (PDB 6KQS)); assay: crystal structure; ErLnb136 (both domains on one chain) with LNB; SeMet-labelled 1.4 Å and native 2.0 Å; sitting-drop vapor diffusion at 20 °C; conditions: both partners purified
T9 construct: C-terminal catalytic domain (AA 242-663, beta-helix fold) of ErLnb136, product of HMPREF0373_02965 of Eubacterium ramulus DSM 15684; In the crystal this domain is on ONE natural polypeptide with m3 (whole ErLnb136, cloned in pETM11 with a cleavable N- or C-terminal His6 tag); also called GH136II domain; source: E. coli B834 (DE3), SeMet-labelled, and E. coli BL21 ΔlacZ (DE3)/pRARE2, native
T9 sequence (looked up): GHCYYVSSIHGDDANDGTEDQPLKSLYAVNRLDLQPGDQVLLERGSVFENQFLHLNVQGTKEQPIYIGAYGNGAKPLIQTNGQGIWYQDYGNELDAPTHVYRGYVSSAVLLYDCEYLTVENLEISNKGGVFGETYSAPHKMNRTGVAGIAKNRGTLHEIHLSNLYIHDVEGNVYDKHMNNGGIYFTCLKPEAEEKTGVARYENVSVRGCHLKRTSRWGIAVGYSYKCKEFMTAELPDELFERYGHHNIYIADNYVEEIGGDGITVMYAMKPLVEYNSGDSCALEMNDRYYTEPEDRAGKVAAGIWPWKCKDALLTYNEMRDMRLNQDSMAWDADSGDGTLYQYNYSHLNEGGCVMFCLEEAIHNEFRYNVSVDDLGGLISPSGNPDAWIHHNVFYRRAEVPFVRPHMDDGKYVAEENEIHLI

With `CC(=O)N[C@H]1C(O)O[C@H](CO)[C@H](O)[C@@H]1O[C@@H]1O[C@H](CO)[C@H](O)[C@H](O)[C@H]1O` (stereo partly drawn) [GNB] the Kd (RhLNBBP [1]) was 10.9 µM and 11.1 µM, the KD (RhLNBBP [2]) was “shows preference to LNB followed by GNB and LNT” and the “phosphorolysis, HPAEC-PAD of Gal1P; specific activity only” value (“phosphorolysis, HPAEC-PAD of Gal1P” below) (RhGLnbp112) was “This enzyme has comparable specific activities for LNB and GNB”. The Kd (RiLe^a/bBP [3]) was 10.8 µM and 10.2 µM and the “phosphorolysis, HPAEC-PAD of Gal1P” value (RiGLnbp112) was “(RiGLnbp112) phosphorolyzes LNB and GNB equally efficiently”.

With `CC(=O)N[C@H]1[C@H](O[C@H]2[C@@H](O)[C@@H](CO)O[C@@H](O[C@H]3[C@H](O)[C@@H](O)C(O)O[C@@H]3CO)[C@@H]2O)O[C@H](CO)[C@@H](O)[C@@H]1O[C@@H]1O[C@H](CO)[C@H](O)[C@H](O)[C@H]1O` (stereo partly drawn) [LNT] the Kd (RhLNBBP [1]) was 11 µM and 9.71 µM and the KD (RhLNBBP [2]) was “shows preference to LNB followed by GNB and LNT”.

`CC(=O)N[C@H]1C(O)O[C@H](CO)[C@@H](O)[C@@H]1O[C@@H]1O[C@H](CO)[C@H](O)[C@H](O)[C@H]1O` (stereo partly drawn) [LNB] was tested, and the Kd (RhLNBBP [1]) was 2.64 µM and 3.12 µM, the KD (RhLNBBP [2]) was “shows preference to LNB followed by GNB and LNT” and the “phosphorolysis, HPAEC-PAD of Gal1P” value (RhGLnbp112) was “This enzyme has comparable specific activities for LNB and GNB”. The X-ray crystal structure (ErLnb136) was “The LNB molecule bound in the active site is recognized by ten potential hydrogen bonds”, the Kd (RiLe^a/bBP [3]) was 6.63 µM and 6.91 µM and the “phosphorolysis, HPAEC-PAD of Gal1P” value (RiGLnbp112) was “(RiGLnbp112) phosphorolyzes LNB and GNB equally efficiently”.

`CC(=O)N[C@H]1C(O)O[C@H](CO)[C@@H](O[C@@H]2O[C@@H](C)[C@@H](O)[C@@H](O)[C@@H]2O)[C@@H]1O[C@@H]1O[C@H](CO)[C@H](O)[C@H](O)[C@H]1O[C@@H]1O[C@@H](C)[C@@H](O)[C@@H](O)[C@@H]1O` (stereo partly drawn) [Le^b tetraose] was tested, and the KD (RiLe^a/bBP [4]) was “Lewis b (Le^b) tetraose and Lewis a (Le^a) triose were the preferred ligand” and the Kd (RiLe^a/bBP [3]) was 1.77 µM and 1.75 µM.

`CC(=O)N[C@H]1C(O)O[C@H](CO)[C@@H](O[C@@H]2O[C@@H](C)C(O)C(O)[C@@H]2O)[C@@H]1O[C@@H]1O[C@H](CO)[C@H](O)[C@H](O)[C@H]1O` (stereo partly drawn) [Le^a triose] was tested, and the “product profile (TLC and/or MALDI-TOF MS)” value (RiFuc29) was “complete defucosylation of putative products of RiGH136, Le^b tetraose, Le^a triose and H triose” and the KD (RiLe^a/bBP [4]) was “Lewis b (Le^b) tetraose and Lewis a (Le^a) triose were the preferred ligand”.

B1: ErLnb136I, N-terminal domain of the GH136 lacto-N-biosidase ErLnb136 from Eubacterium ramulus (domain or fragment, Eubacterium ramulus DSM 15684, UniProt U2PDT9 7-224, looked up)
chain: NQQEIYAAYRVANLLGVYEDCSPNGFYQRWKQKNAFMKAQAEEFGIGSTDHFIDDVERIVDQRRAETEWKNADAWKNGTAAFGARYLTPEMYLDYELKSIQLAFATYKGELVGNHKCHVYTEDEKRAFYDANQDLFTRYHGDLFSYEEVDLIIEKWLKVQEYQDIIESVVANTHLNETTVNEISAQDVSDEKSDNAVRWITEFEKIWNQMQEEKRLRE
modifications: selenomethionine in the SeMet-labelled crystal (PDB 6KQS)
notes: N-terminal domain (AA 7-224, eight alpha-helices, new fold) of ErLnb136, product of HMPREF0373_02965 of Eubacterium ramulus DSM 15684; residues 180-199 are disordered in the structure; In the crystal this domain is on ONE natural polypeptide with m4 (whole ErLnb136, cloned in pETM11 with a cleavable N- or C-terminal His6 tag); The linker 225-241 is disordered; also called GH136I domain; source: …
B1: binds [5].
